Assay results taken from patent US20240189307A1, “METHODS OF STABILIZING THE NEURONAL PROTEOME AGAINST COLLAPSE AND PROTECTING VASCULAR CELLS” (ALBERT EINSTEIN COLLEGE OF MEDICINE, priority 2021, published 2024).

Tested on: NIH3T3 cells
Test: Macroautophagic flux (LC3-II flux with/without lysosomal protease inhibitors)
Assay type: cell-based, mouse
Conditions: 20 μM, 16 h
Method: FIG. 10. Characterization of the brain permeable chemical activator of CMA and effect in a mouse model of Frontotemporal dementia-related proteotoxicity. (A) Chemical structure of AR7 and CA77.1. (B) Quantification of the effect of adding increasing concentrations of AR7 and CA77.1 to NIH3T3 cells stably expressing the KFERQ-PS-Dendra reporter. CMA activity was quantified after 16 h treatment as the average of fluorescent puncta per cell. (n>800 cells per condition). (C) Autophagic flux in NIH3T3 cells incubated at 37° C. for 16 h with 20 µM AR7 or CA77.1 or without additions (none). Where indicated lysosomal protease inhibitors (PI) were added to the cells 6 h before lysis. Left: representative immunoblot. […] Right: quantification of LC3-II flux as the difference in LC3-II levels in cells treated with PI relative to untreated. […] (D) Quantification of the effect of adding increasing concentrations of AR7 and CA77.1 to NIH3T3 cells stably expressing the KFERQ-PS-Dendra reporter. CMA activity was quantified after 12 h or 24 h treatment as the average of fluorescent puncta per cell. […] Representative immunoblot of 4-5 mice per genotype and treatment (L) and densitometric quantification of AT8 as monomer [Kruskal-Wallis statistic=20.48, p<0.0001] […] (O, P) Quantification of the number of Iba1-positive microglial cells per mm^2 in the hippocampus [Kruskal-Wallis statistic=10.55, p=0.0051] […]

CC(=O)Nc1ccc(-c2cnc3cc(Cl)ccc3n2)cc1 [CA77.1]
effect on macroautophagy (LC3-II flux): without affecting macroautophagy
